Data as given in PMC8011931, “Identification, Structure–Activity Relationship, and Biological Characterization of 2,3,4,5-Tetrahydro-1H-pyrido[4,3-b]indoles as a Novel Class of CFTR Potentiators” (Journal of Medicinal Chemistry, 2020).

Experiments:
HepG2 cells = experiment: HepG2 cell toxicity assay (CTG and MTT); assay type: cell-based; details: at 20 μM, 24 h, CTG and MTT assays; percent of vehicle-treated controls
Protocol: In order to assess a possible liver toxicity liability, the selected analogues were also tested in HepG2 cells at two concentrations (2.0 and 20 μM) for 24 h, along with a reference compound (rotenone). A reduction of cell viability to less than 80% was set as the threshold for estimation of cytotoxicity.[42]
To increase the detection of drug-induced mitochondrial effects in a preclinical cell-based assay, HepG2 hepatocellular carcinoma cells (ATCC HB-8065) were forced to rely on mitochondrial oxidative phosphorylation rather than glycolysis by substituting galactose (10 mM) for glucose (25 mM) in the growth media (DMEM, Life Technologies).
High-glucose media: high-glucose DMEM (Invitrogen 11995-065) containing 25 mM glucose, 1.0 mM sodium pyruvate, supplemented with 5 mM N-(2-hydroxyethyl)piperazine-N′-(2-ethanesulfonic acid) (HEPES), and 10% FBS. Galactose media: DMEM deprived of glucose (Invitrogen 11966-025), supplemented with 10 mM galactose, 2.0 mM glutamine (6 mM final), 5.0 mM HEPES, 10% FBS, and 1.0 mM sodium pyruvate.
For the cytotoxicity assay, cells were plated at 20,000 cells/well in 100 μL of cell culture media in 96-well plates and allowed to grow overnight. The cells were treated for 24 h with 2.0 or 20 μM of each compound. All compounds were dissolved in DMSO with a stock concentration of 4 mM. The first dilution step of compounds was prepared in DMSO (200× stock solutions), while the second dilution step was carried out in a complete cell culture medium (5% DMSO). Of this dilution, 10 μL were added to the wells of the 96-well plate, with a final DMSO concentration of 0.5%. Rotenone, a well-known mitochondrial inhibitor, was used as a reference compound. After treatment, cellular viability was assessed by using two different assays, run on independent plates: the CellTiter-Glo (CTG) Luminescent Cell Viability Assay (Promega), which determines the number of viable cells based on the quantitation of the ATP present, and the thiazolyl blue tetrazolium […] (MTT) dye (Aldrich), which is converted to water-insoluble MTT formazan crystals by mitochondrial dehydrogenases of living cells. Each experimental condition (i.e., control, reference, and compounds’ doses) has been tested in three technical replicates.

[1] = Liver microsomal stability, phase II (UDPGA), human; assay type: in vitro ADME; details: for human LM_UDPGA parent compound remaining at the last time point (in parentheses): 4.6 μM, 60 min; for half-life at 4.6 μM: human, liver microsomes, pH 7.5, 0.1% DMSO, n ≥ 3, read-out: human LM_UDPGA t1/2
Protocol: Phase II: 10 mM DMSO stock solution of the test compound was preincubated at 37 °C for 15 min with human liver microsomes added alamethicin in 0.1 M Tris–HCl buffer (pH 7.5) with 10% DMSO. The final concentration was 4.6 μM. After preincubation, the cofactors (UDPGA, D-saccharic acid lactone, and MgCl2 predissolved in 0.1 M Tris–HCl) were added to the incubation mixture and the incubation was continued at 37 °C for 1 h.
For both phase I and II studies: At each time point (0, 5, 15, 30, and 60 min), 30 μL of the incubation mixture was diluted with 200 μL of cold CH3CN spiked with 200 nM of an appropriate internal standard, followed by centrifugation at 3270g for 15 min. The supernatant was further diluted with H2O (1:1) for analysis. A reference incubation mixture (microsomes without cofactors) was prepared for each test compound and analyzed at t = 0 and 60 min in order to verify the compound’s stability in the matrix. The two time points were diluted as for the time points of the incubation mixture above. The supernatants were analyzed by LC/MS–MS on a Waters ACQUITY UPLC/MS TQD system consisting of a TQD (triple quadrupole detector) mass spectrometer equipped with an electrospray ionization interface and a photodiode array eλ detector. Electrospray ionization was applied in positive mode. Compound-dependent parameters as MRM transitions and collision energy were developed for each compound. The analyses were run on an ACQUITY UPLC BEH C18 (50 × 2.1 mm ID, particle size 1.7 μm) with a VanGuard BEH C18 precolumn (5 × 2.1 mm ID, particle size 1.7 μm) at 40 °C, using H2O + 0.1% HCOOH (A) and CH3CN + 0.1% HCOOH (B) as the mobile phase. The percentage of test compound remaining at each time point relative to t = 0 was calculated by the response factor on the basis of the internal standard peak area. The percentage of test compound versus time was plotted and fitted by GraphPad Prism (GraphPad Software, Version 5 for Windows, CA, USA, www.graphpad.com) to estimate the compound’s half-life (t1/2), which was reported as mean value along with the standard deviation (n = 3).

Row | SMILES | HepG2 (% survival) (HepG2 cells) [%] | human LM_UDPGA parent compound remaining at the last time point (in parentheses) [1] [%] | half-life at 4.6 μM [1] [h]
1 | COc1ccc2[nH]c3c(c2c1)CN(C(=O)c1cc(C(F)(F)F)[nH]n1)CC3 [Compound 3, (8-Methoxy-1,3,4,5-tetrahydropyrido[4,3-b]indol-2-yl)-[5-(trifluoromethyl)-1H-pyrazol-3-yl]methanone] | >80 |  | 
2 | O=C(c1cc(C(F)(F)F)[nH]n1)N1CCc2[nH]c3c(F)cccc3c2C1 [Compound 20, (6-Fluoro-1,3,4,5-tetrahydro-2H-pyrido[4,3-b]indol-2-yl)-(5-(trifluoromethyl)-1H-pyrazol-3-yl)methanone] | >80 |  | 
3 | COc1cc(F)c2[nH]c3c(c2c1)CN(C(=O)c1cc(C(F)(F)F)[nH]n1)CC3 [Compound 25, (6-Fluoro-8-methoxy-1,3,4,5-tetrahydro-2H-pyrido[4,3-b]indol-2-yl)-(5-(trifluoromethyl)-1H-pyrazol-3-yl)methanone] | >80 |  | 
4 | O=C(c1cc(C(F)(F)F)[nH]n1)N1CCc2[nH]c3c(F)ccc(F)c3c2C1 [Compound 29, (6,9-Difluoro-1,3,4,5-tetrahydro-2H-pyrido[4,3-b]indol-2-yl)-(5-(trifluoromethyl)-1H-pyrazol-3-yl)methanone] | >80 |  | 
5 | Cc1ccc(F)c2[nH]c3c(c12)CN(C(=O)c1cc(C(F)(F)F)[nH]n1)CC3 [Compound 30, (6-Fluoro-9-methyl-1,3,4,5-tetrahydro-2H-pyrido[4,3-b]indol-2-yl)-(5-(trifluoromethyl)-1H-pyrazol-3-yl)methanone] | >80 | 75 | > 1
6 | Cc1ccc(F)c2[nH]c3c(c12)CN(C(=O)c1cc(C(F)(F)F)[nH]n1)[C@H](C)C3 [Compound 39, (R)-(6-Fluoro-3,9-dimethyl-1,3,4,5-tetrahydro-2H-pyrido[4,3-b]indol-2-yl)-(5-(trifluoromethyl)-1H-pyrazol-3-yl)methanone] | >80 | 79 | > 1
